From US20240350456A1, “COMPOSITIONS AND METHODS FOR DIAGNOSING AND TREATING INFLAMMATORY CONDITIONS” (RUTGERS, THE STATE UNIVERSITY OF NEW JERSEY, priority 2023, published 2024)
Entries after “also recorded” stand apart in the source; their conditions may differ.

Assays:
[1] = system: C57BL/6 mice with DSS-induced mild colitis; test: DSS induced mild colitis treatment with LGG metabolites (2.5% DSS); assay type: in vivo, mouse; conditions: metabolite i.p. twice
Description: FIG. 13A-13M. IPA requires Ocln to alleviate LPS-induced leaky epithelium. FIG. 13A, experimental design. Organoids were derived from tamoxifen-inducible, intestine-specific Ocln-knockout (KO) mice generated by crossing a floxed Ocln^fl/fl with Villin-CreERT2 mice. FIG. 13B, Representative images and FIG. 13C, quantitative analysis of permeability assay. LPS was added to CCM media (basolateral side) with and without IPA […] and IAM (200 μM) (n=3 mice). *** P<0.001, compared with WT control, †P<0.05 compared with KO-control. FIG. 13D, Representative images of immunofluorescent staining of Ocln in WT control and Ocln KO conventional mice, L=lumen. MNA improves but ASA exacerbates dextran sodium sulfate (DSS)-induced leaky gut. FIG. 13E, experimental design, evaluation in vivo of metabolites (Met). Methylnicotinamide (MNA. […]) and L-argininosuccinate (ASA. 3.6 mg/kg) were administered (i.p.) twice 1-day before and 3 days after DSS treatment p.o. 4 kDa fluorescein isothiocyanate (FITC)-dextran was gavaged 4 h before sacrifice. FIG. 13F, body weight of DSS-treated mice with and without metabolites, FIG. 13G, representative images of Ocln-stained colon sections (green; left panel) and ECad (red; middle). Merged images (yellow; right panel) depict Ocln location in TJ of MNA-treated but not in DSS-only and ASA-treated colon (arrows). Quantitative fluorescent intensity of Ocln (FIG. 13H) and ECad (FIG. 13I) in the TJ, relative to DSS only controls. FIG. 13J, DSS scoring. FIG. 13K, representative H&E images of DSS, DSS+ MNA and DSS+ASA colon sections. FIG. 13L, In vivo permeability as determined by fluorescent intensity of FITC in serum. FIG. 13M, Serum level of interleukin-6.
DSS induced mild colitis treatment with LGG metabolites. To assess in vivo impact of metabolites on gut barrier function, conventional C57BL/6 mice (8 weeks of age) were administered with 2.5% dextran sodium sulfate (DSS) in drinking water to induce mild colitis. Animals were intraperitoneal injected with either PBS vehicle, 30 mg/kg methylnicotinamide chloride, or 3.6 mg/kg argininosuccinic acid dissolved in sterile PBS at Day-1 and Day 4 of the experiment. Body weight was recorded daily. At Day 7, 4 hours before sacrifice and collection of blood, animals were gavaged with 600 mg/kg with 4 kDa FITC-dextran. Blood was collected in 5% EDTA and subsequently centrifuged at 3000 g for 5 minutes for plasma collection. FITC readings were collected by diluting 25 μl of plasma in 75 μl of PBS and analyzed using a Glomax (Promega, GMMTE9032) with Ex490/Em510-570 filter cube module. Serum concentration of interleukin-6 (Cat. No. Biolegend 431304) was also determined. Ileum and colon sections were collected, fixed in 4% paraformaldehyde, processed for embedding in paraffin wax. Pathohistology of intestine was observed by routine H&E staining.

[2] = system: leaky gut mouse model (DSS colitis); test: DSS (3%) leaky gut colitis mouse model, metabolites i.p.; assay type: in vivo
Description: A moderate amount of DSS (3%) creates a leaky gut model.
FIG. 23A, Analysis of plasma ovalbumin levels after oral ovalbumin gavage in mice treated with exogenous MNA or PBS. […] Analysis of fecal lipocalin levels in mice treated with PBS or MNA with or without DSS. […] Representative histology sections of mice treated with PBS or MNA with or without DSS. FIG. 23D, quantification of mouse histology sections scored for colitis index.
FIG. 24A, Analysis of zonula occludens (Tjp1) and occluding (Ocln) mRNA levels after treatment with PBS or MNA with or without DSS. FIG. 24B, Western blot analysis and quantification of Ocln protein levels after treatment with PBS or MNA with or without DSS. FIG. 24C, Quantified levels of occluding in the ileum (top) and colon (bottom) using immunofluorescence antibody staining.
Administration of DSS induces experimental colitis and disrupts gut barrier in vivo in animal models.
Exogenous MNA administration was assessed by plasma ovalbumin levels after oral ovalbumin gavage—an accepted method to determine permeability of the gut paracellular pathway. […] (FIG. 23B) Histology sections of mice treated with or without DSS and PBS or MNA were also obtained. […] Sections from several mice were also examined by a blinded observer and scored for colitis index.
(FIG. 24B) Using immunofluoresce antibody staining, quantified levels of occludin in the ileum and colon were also analyzed.

C[n+]1cccc(C(N)=O)c1 [Methylnicotinamide, 1-methynicotinamide]
E-cad abundance and localization in colonic epithelial cells [1]: significantly increased | Ocln expression in colonic epithelium [1]: significantly elevated Ocln expression | pathology score (epithelial cell disruption and immune cell infiltration) [1]: improved pathology score | DSS-induced leaky gut (overall) ([1]; listed as MNA): sealed the leaky gut; also recorded: improves | serum IL-6 level ([1]; listed as MNA): decreased; also recorded: reduced serum proinflammatory IL-6 levels | body weight loss and recovery in DSS leaky gut model ([2]; 3% DSS, i.p. every other day, listed as MNA): dampened then accelerated the recovery of body weight; also recorded: robust and faster recovery | tissue damage in histology sections ([2]; DSS-treated animals): alleviated | fecal lipocalin levels ([2]; MNA-DSS vs PBS-DSS): reduced fecal lipocalin | body weight when injected alone ([2]; i.p. every other day, no DSS): no deleterious effect on body weight | barrier function (plasma ovalbumin after oral ovalbumin gavage), increase vs PBS treated mice ([2]; i.p. injection): 2 fold | colitis score (colitis index, blinded observer) ([2]; with DSS): protected the tissue from damage even with DSS | mRNA levels of Tjp1 and Ocln in the ileum ([2]; with DSS): increasing the mRNA levels to normal
